The target in the assay is T1, human TRPA1 (Homo sapiens, UniProt O75762).
T1 construct: host or cells: human embryonic kidney-derived 293T cells, transient transfection with pcDNA3.1/zeo(+) plasmid
T1 sequence (O75762 whole entry): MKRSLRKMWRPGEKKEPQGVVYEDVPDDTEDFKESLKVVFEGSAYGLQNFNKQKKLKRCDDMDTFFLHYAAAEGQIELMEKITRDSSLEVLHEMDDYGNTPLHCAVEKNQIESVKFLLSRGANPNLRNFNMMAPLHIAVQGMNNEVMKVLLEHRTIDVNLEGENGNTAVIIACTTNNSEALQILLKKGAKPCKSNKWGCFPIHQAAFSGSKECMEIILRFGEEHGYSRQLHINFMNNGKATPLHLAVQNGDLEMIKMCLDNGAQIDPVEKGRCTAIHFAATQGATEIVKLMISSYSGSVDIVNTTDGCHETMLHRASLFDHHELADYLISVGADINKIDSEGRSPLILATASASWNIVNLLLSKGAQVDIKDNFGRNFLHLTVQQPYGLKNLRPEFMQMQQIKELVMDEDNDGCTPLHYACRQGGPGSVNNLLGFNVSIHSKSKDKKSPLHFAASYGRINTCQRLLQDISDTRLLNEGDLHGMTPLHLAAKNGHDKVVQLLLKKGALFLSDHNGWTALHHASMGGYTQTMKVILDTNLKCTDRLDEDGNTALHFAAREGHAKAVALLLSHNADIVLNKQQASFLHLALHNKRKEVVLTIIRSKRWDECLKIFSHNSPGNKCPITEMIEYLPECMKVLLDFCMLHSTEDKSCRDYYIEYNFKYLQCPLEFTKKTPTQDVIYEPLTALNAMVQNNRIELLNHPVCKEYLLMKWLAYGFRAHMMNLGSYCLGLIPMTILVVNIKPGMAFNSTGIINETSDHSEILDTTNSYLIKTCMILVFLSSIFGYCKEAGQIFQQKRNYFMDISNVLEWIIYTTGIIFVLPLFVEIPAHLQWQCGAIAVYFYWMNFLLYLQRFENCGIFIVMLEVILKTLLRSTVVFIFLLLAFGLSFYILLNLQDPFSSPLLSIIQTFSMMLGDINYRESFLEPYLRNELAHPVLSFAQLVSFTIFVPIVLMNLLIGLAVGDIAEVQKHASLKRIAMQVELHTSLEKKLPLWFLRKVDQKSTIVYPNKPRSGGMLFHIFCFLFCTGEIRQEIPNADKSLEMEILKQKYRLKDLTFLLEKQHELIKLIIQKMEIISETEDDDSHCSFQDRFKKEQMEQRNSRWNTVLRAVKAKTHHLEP
Put plainly: Measurement of TRPA1 antagonist activity (intracellular calcium increase, FLIPR). The format is cell-based. The following applies: 293T cells transfected with human TRPA1 expression plasmid, allylisothiocyanate 20 μM stimulation, calcium fluorescence, read-out: antagonism hTRPA1. From the text: Measurement of TRPA1 Antagonist Activity
Human TRPA1 Expression Plasmid
As cDNA encoding human TRPA1 (GenBank accession No. […]), a commercially available product was purchased (manufactured by Kazusa DNA Research Institute, clone No.: pFN21AB7348, item No.: FHC07217). Using this as a template, full-length human TRPA1 gene was amplified using the primer sequences shown below, by reaction using DNA polymerase (manufactured by Stratagene, trade name: PfuUltra High-Fidelity DNA Polymerase).
A recognition site (underlined) of restriction enzyme HindIII was added to the 5′ side, and XbaI site (underlined) was added to the 3′ side, and GTT of the template sequence was changed to termination codon TAG (bold). The obtained double stranded DNA was enzyme-digested with HindIII and XbaI, and introduced into a multicloning site of expression plasmid pcDNA3.1/zeo(+) (manufactured by Invitrogen) to give a human TRPA1 expression plasmid.
Human embryonic kidney-derived 293T cells were cultured in Dulbecco's Modified Eagle Medium containing 10% fetal bovine serum, 10 unit penicillin, and 10 μg streptomycin, plated on a petri dish having a diameter of 10 cm at 3×10^6 cells, and cultured for 24 hr. A medium containing a reduced amount of serum (manufactured by Invitrogen, trade name: OPTI-MEM, 600 μL), a gene insertion reagent (manufactured by Mirus Bio, trade name: Mirus TransIT-293, 18 μL), and human TRPA1 expression plasmid (6 μg) were mixed, the total amount of the mixture was added to the cells on the petri dish to allow for gene transfer. The cells were recovered about 8 hr later, plated on a poly-D-lysine coated 384 well black/clear bottom plate at 7,500-12,000 cells/well, and cultured overnight.
Measurement of Intracellular Calcium Increase
The 384 well plate was recovered, and the medium was removed. A calcium-bonded fluorescent indicator (manufactured by Molecular Device, trade name: Calcium4 Assay Kit, 40 μL) dissolved in assay buffer (1×HBSS, 20 mM HEPES, pH 7.2) was added, and the cells were stained in a 37° C. incubator for 1 hr. The cells were taken out at room temperature and left standing for 15 min or more. A test substance (10 μL) was added by a 384 well type dispenser, and the mixture was incubated at room temperature for 10 min. Then, allylisothiocyanate (12.5 μL) at a final concentration of 20 μM was added by a fluorescence imaging plate reader (manufactured by Molecular Device, FLIPR), and changes in the relative fluorescence intensity were measured for 5 min.
Test Substance Preparation
The test substance was dissolved in dimethyl sulfoxide and serially diluted with an assay buffer containing 0.1% bovine serum albumin (1×HBSS, 20 mM HEPES, pH 7.2) to a 5-fold concentration of the evaluation concentration. Allylisothiocyanate, which is a known TRPA1 activator, was dissolved in dimethyl sulfoxide to 100 mM, and further diluted 5-fold (100 μM) of the final concentration, like the test substance.
Calculation of Antagonist Activity
Under the test substance-free conditions, the maximum variation range of the fluorescence intensity before and after allylisothiocyanate stimulation was defined to be 100% activity rate, and the variation range before and after buffer stimulation was defined as 0% activity rate. The activity rate on addition of the test substance was determined, and the numerical value obtained by subtracting the activity rate from 100 was defined to be an inhibitory rate. IC50, which is the concentration of the test substance necessary for reaching the 50% inhibitory rate, was calculated from the sigmoid approximate curve by a spreadsheet software Excel-Fit.
(In general: Calcium assays in cells follow changes in intracellular calcium, usually with a dye or a luminescent sensor.)
As to `O=C(NCc1nc(-c2ccc(Cl)cc2)cs1)[C@@H]1CCCN1S(=O)(=O)c1ccc(Cl)s1` [compound 2, (2S)-1-(5-chlorothiophene-2-sulfonyl)-N-{[4-(4-chlorophenyl)thiazol-2-yl]methyl}pyrrolidine-2-carboxamide], the IC50 came out at 670 nM.

With `O=C(NCc1nc(-c2ccc(OC(F)(F)F)cc2)cs1)[C@@H]1CCCN1S(=O)(=O)c1ccc(Cl)s1` [compound 3, (2S)-1-(5-chlorothiophene-2-sulfonyl)-N-({4-[4-(trifluoromethoxy)phenyl]-thiazol-2-yl}methyl)-pyrrolidine-2-carboxamide], the IC50 came to 160 nM.

Regarding `O=C(NCc1nc(-c2ccccc2)cs1)[C@@H]1CCCN1S(=O)(=O)c1ccc(Cl)s1` [compound 4, (2S)-1-(5-chlorothiophene-2-sulfonyl)-N-{(4-phenylthiazol-2-yl)methyl}pyrrolidine-2-carboxamide], the IC50 was 760 nM.

`Cc1ccc(-c2csc(CNC(=O)[C@@H]3CCCN3S(=O)(=O)c3ccc(Cl)s3)n2)cc1` [compound 5, (2S)-1-(5-chlorothiophene-2-sulfonyl)-N-{[4-(4-methylphenyl)thiazol-2-yl]methyl}pyrrolidine-2-carboxamide]: the IC50 turned out to be 580 nM.

With `O=C(NCc1nc(-c2cccc(C(F)(F)F)c2)cs1)[C@@H]1CCCN1S(=O)(=O)c1ccc(Cl)s1` [compound 6, (2S)-1-(5-chlorothiophene-2-sulfonyl)-N-({4-[3-(trifluoromethyl)phenyl]-thiazol-2-yl}methyl)-pyrrolidine-2-carboxamide], the IC50 came out at 840 nM.

Consider `O=C(NCc1nc(-c2cccc(F)c2)cs1)[C@@H]1CCCN1S(=O)(=O)c1ccc(Cl)s1` [compound 7, (2S)-1-(5-chlorothiophene-2-sulfonyl)-N-{[4-(3-fluorophenyl)thiazol-2-yl]methyl}pyrrolidine-2-carboxamide], for which the IC50 turned out to be 430 nM.

Regarding `O=C(NCc1nc(-c2ccc(OC(F)(F)F)c(F)c2)cs1)[C@@H]1CCCN1S(=O)(=O)c1ccc(Cl)s1` [compound 8, (2S)-1-(5-chlorothiophene-2-sulfonyl)-N-({4-[3-fluoro-4-(trifluoromethoxy)-phenyl]thiazol-2-yl}methyl)-pyrrolidine-2-carboxamide], the IC50 came out at 170 nM.

Take `Cc1sc(CNC(=O)[C@@H]2CCCN2S(=O)(=O)c2ccc(Cl)s2)nc1-c1ccc(C(F)(F)F)cc1` [compound 9, (2S)-1-(5-chlorothiophene-2-sulfonyl)-N-({5-methyl-4-[4-(trifluoromethyl)phenyl]-thiazol-2-yl}methyl)-pyrrolidine-2-carboxamide]: the IC50 stood at 150 nM.

As for `C[C@H](NC(=O)[C@@H]1CCCN1S(=O)(=O)c1ccc(Cl)s1)c1nc(-c2ccc(C(F)(F)F)cc2)cs1` [compound 10, (2S)-1-(5-chlorothiophene-2-sulfonyl)-N-[(1S)-1-{4-[4-(trifluoromethyl)phenyl]-thiazol-2-yl}ethyl]-pyrrolidine-2-carboxamide], the IC50 came to 320 nM.

`C[C@H](NC(=O)[C@@H]1CCCN1S(=O)(=O)c1ccc(Cl)s1)c1nc(-c2ccc(OC(F)(F)F)cc2)cs1` [compound 11, (2S)-1-(5-chlorothiophene-2-sulfonyl)-N-[(1S)-1-{4-(4-(trifluoromethoxy)phenyl]-thiazol-2-yl}ethyl]-pyrrolidine-2-carboxamide]: the IC50 worked out at 480 nM.

As to `O=C(NCc1nc(-c2ccc(C(F)(F)F)cc2)co1)[C@@H]1CCCN1S(=O)(=O)c1ccc(Cl)s1` [compound 12, (2S)-1-(5-chlorothiophene-2-sulfonyl)-N-({4-(4-(trifluoromethyl)phenyl]-oxazol-2-yl}methyl)-pyrrolidine-2-carboxamide], the IC50 is 300 nM.

As to `O=C(NCc1nc(-c2ccc(OC(F)(F)F)cc2)co1)[C@@H]1CCCN1S(=O)(=O)c1ccc(Cl)s1` [compound 13, (2S)-1-(5-chlorothiophene-2-sulfonyl)-N-({4-[4-(trifluoromethoxy)phenyl]-oxazol-2-yl}methyl)-pyrrolidine-2-carboxamide], the IC50 turned out to be 120 nM.

On to `O=C(NCc1csc(-c2ccc(C(F)(F)F)cc2)n1)[C@@H]1CCCN1S(=O)(=O)c1ccc(Cl)s1` [compound 14, (2S)-1-(5-chlorothiophene-2-sulfonyl)-N-({2-[4-(trifluoromethyl)phenyl]-thiazol-4-yl}methyl)-pyrrolidine-2-carboxamide], for which the IC50 stood at 200 nM.

Regarding `O=C(NCc1nc(-c2ccc(C(F)(F)F)cc2)no1)[C@@H]1CCCN1S(=O)(=O)c1ccc(Cl)s1` [compound 15, (2S)-1-(5-chlorothiophene-2-sulfonyl)-N-({3-[4-(trifluoromethyl)phenyl]-1,2,4-oxadiazol-5-yl}methyl)pyrrolidine-2-carboxamide], the IC50 came to 240 nM.

In the case of `O=C(NCc1nc(-c2ccc(C(F)(F)F)cc2)c[nH]1)[C@@H]1CCCN1S(=O)(=O)c1ccc(Cl)s1` [compound 16, (2S)-1-(5-chlorothiophene-2-sulfonyl)-N-({4-[4-(trifluoromethyl)phenyl]-imidazol-2-yl}methyl)-pyrrolidine-2-carboxamide], the IC50 was 5840 nM.

In the case of `Cc1cc(CNC(=O)[C@@H]2CCCN2S(=O)(=O)c2ccc(Cl)s2)nn1-c1ccc(Cl)cc1` [compound 17, (2S)-1-(5-chlorothiophene-2-sulfonyl)-N-{[1-(4-chlorophenyl)-5-methylpyrazol-3-yl]methyl)pyrrolidine-2-carboxamide], the IC50 was 4440 nM.

Turning to `O=C(NCc1nc(-c2ccc(C(F)(F)F)cc2)cs1)[C@@H]1C=CCN1S(=O)(=O)c1ccc(Cl)s1` [compound 18, (2S)-1-(5-chlorothiophene-2-sulfonyl)-N-({4-[4-{trifluoromethyl)phenyl]-thiazol-2-yl}methyl)-3,4-didehydropyrrolidine-2-carboxamide], the IC50 amounted to 170 nM.

On to `O=C(NCc1nc(-c2ccc(Cl)cc2)cs1)[C@@H]1C=CCN1S(=O)(=O)c1ccc(Cl)s1` [compound 19, (2S)-1-(5-chlorothiophene-2-sulfonyl)-N-({4-[4-(chloro)phenyl]thiazol-2-yl}methyl)-3,4-didehydropyrrolidine-2-carboxamide], for which the IC50 is 560 nM.

In the case of `O=C(NCc1nc(-c2cccc(C(F)(F)F)c2)cs1)[C@@H]1C=CCN1S(=O)(=O)c1ccc(Cl)s1` [compound 21, (2S)-1-(5-chlorothiophene-2-sulfonyl)-N-({4-[3-(trifluoromethyl)phenyl]-thiazol-2-yl}methyl)-3,4-didehydropyrrolidine-2-carboxamide], the IC50 stood at 710 nM.

Take `O=C(NCc1nc(-c2ccc(OC(F)(F)F)c(F)c2)cs1)[C@@H]1C=CCN1S(=O)(=O)c1ccc(Cl)s1` [compound 22, (2S)-1-(5-chlorothiophene-2-sulfonyl)-N-({4-[3-fluoro-4-(trifluoromethoxy)phenyl]-thiazol-2-yl}methyl)-3,4-didehydropyrrolidine-2-carboxamide]: the IC50 came out at 110 nM.

On to `Cc1sc(CNC(=O)[C@@H]2C=CCN2S(=O)(=O)c2ccc(Cl)s2)nc1-c1ccc(C(F)(F)F)cc1` [compound 23, (2S)-1-(5-chlorothiophene-2-sulfonyl)-N-({5-methyl-4-[4-(trifluoromethyl)phenyl]-thiazol-2-yl}methyl)-3,4-didehydropyrrolidine-2-carboxamide], for which the IC50 came to 140 nM.

`C[C@H](NC(=O)[C@@H]1C=CCN1S(=O)(=O)c1ccc(Cl)s1)c1nc(-c2ccc(C(F)(F)F)cc2)cs1` [compound 24, (2S)-1-(5-chlorothiophene-2-sulfonyl)-N-[(1S)-1-{4-[4 (trifluoromethyl)phenyl]-thiazol-2-yl)ethyl]-3,4-didehydropyrrolidine-2-carboxamide]: the IC50 amounted to 470 nM.
